This series in a line: Partition coefficient (logP). The class given is physicochemical. The following applies: octanol/water.
As a reminder, the logP is a log measure of how a compound divides between an organic and an aqueous phase. The low end stands for a more hydrophilic compound, the high end for a more lipophilic compound. The compound `O/N=C/C1=CC=CCC1` registered a logP of 1.48.

In the case of `COCC(C)(O)C1CC=C(/C=N/O)CC1` (configuration not stated), the logP was -0.1.

In turn, `O/N=C/C1=CCOCC1` registered a logP of -0.72.

`COC(C)(CO)C1CC=C(/C=N/O)CC1` (configuration not stated) showed a logP of -0.1.

Turning to `COCC1CC=C(/C=N/O)CC1` (configuration not stated), the logP was 1.1.

In the case of `C=CC1CC=C(/C=N/O)CC1` (configuration not stated), the logP turned out to be 2.28.

Compound `COCC1CCC=C(/C=N/O)C1` (configuration not stated) came in with a logP of 0.8.

For the compound `O/N=C/C1=CC2C=CC1CC2` (configuration not stated), the logP is 1.9.

As for `O/N=C/C1=CCCOC1`, the logP was -0.72.

`COCC1=CCC(/C=N/O)=CC1` returned a logP of 0.8.

For `CC(O)(CO)C1CC=C(/C=N/O)CC1` (configuration not stated), the logP was -0.92.

`COC(C)C1=CCC(/C=N/O)=CC1` (configuration not stated) registered a log partition coefficient (logP) of 1.1.

In turn, `COC(C)C1CC=C(/C=N/O)CC1` (configuration not stated) gave a logP of 1.4.

Regarding `CC1=CC=C(/C=N/O)CC1`, the logP is 0.78.

Take `C/C=C(C)/C=N/O`: the logP was 0.87.

In the case of `C=C(C)C1CC=C(/C=N/O)CC1` (configuration not stated), the logP was 2.58.

For `O/N=C/C1=CCSCC1`, the logP turned out to be 0.34.

With `COC(C)C1CCC=C(/C=N/O)C1` (configuration not stated), the log partition coefficient (logP) is 1.4.

With `O/N=C/C1=CCCCC1`, the logP was determined as 1.48.

For `COC(C)C1=CC=C(/C=N/O)CC1` (configuration not stated), the logP was found to be 1.1.

Compound `COCC(C)(OC)C1CC=C(/C=N/O)CC1` (configuration not stated) displayed a logP of 0.72.

Regarding `COC(C)C1=CCC=C(/C=N/O)C1` (configuration not stated), the logP stood at 1.1.

The values are drawn from ChEMBL document CHEMBL1121958, “A consideration for structure-taste correlations of perillartines using pattern-recognition techniques” (J Med Chem, 1982).
